Laboratory results as given in ChEMBL document CHEMBL1201862, “PubChem BioAssay data set” (2004).
Where “and” joins values, the source holds several entries; their conditions need not be identical. Equal entries are not always repeated. Calls of active or inactive are those of the source.

Legend:
[1] = biological target: T1, Short transient receptor potential channel 4 (Mus musculus, UniProt Q9QUQ5); experiment: block of DAMGO-driven TRPC4 calcium entry – cell-based, HEK293 TRPC4/mu-opioid, Fluo-4 calcium, dose response (AID 434942); type: functional;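 also: potency of inhibitors blocking the TRPC4 calcium response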
T1 sequence (Q9QUQ5 whole entry): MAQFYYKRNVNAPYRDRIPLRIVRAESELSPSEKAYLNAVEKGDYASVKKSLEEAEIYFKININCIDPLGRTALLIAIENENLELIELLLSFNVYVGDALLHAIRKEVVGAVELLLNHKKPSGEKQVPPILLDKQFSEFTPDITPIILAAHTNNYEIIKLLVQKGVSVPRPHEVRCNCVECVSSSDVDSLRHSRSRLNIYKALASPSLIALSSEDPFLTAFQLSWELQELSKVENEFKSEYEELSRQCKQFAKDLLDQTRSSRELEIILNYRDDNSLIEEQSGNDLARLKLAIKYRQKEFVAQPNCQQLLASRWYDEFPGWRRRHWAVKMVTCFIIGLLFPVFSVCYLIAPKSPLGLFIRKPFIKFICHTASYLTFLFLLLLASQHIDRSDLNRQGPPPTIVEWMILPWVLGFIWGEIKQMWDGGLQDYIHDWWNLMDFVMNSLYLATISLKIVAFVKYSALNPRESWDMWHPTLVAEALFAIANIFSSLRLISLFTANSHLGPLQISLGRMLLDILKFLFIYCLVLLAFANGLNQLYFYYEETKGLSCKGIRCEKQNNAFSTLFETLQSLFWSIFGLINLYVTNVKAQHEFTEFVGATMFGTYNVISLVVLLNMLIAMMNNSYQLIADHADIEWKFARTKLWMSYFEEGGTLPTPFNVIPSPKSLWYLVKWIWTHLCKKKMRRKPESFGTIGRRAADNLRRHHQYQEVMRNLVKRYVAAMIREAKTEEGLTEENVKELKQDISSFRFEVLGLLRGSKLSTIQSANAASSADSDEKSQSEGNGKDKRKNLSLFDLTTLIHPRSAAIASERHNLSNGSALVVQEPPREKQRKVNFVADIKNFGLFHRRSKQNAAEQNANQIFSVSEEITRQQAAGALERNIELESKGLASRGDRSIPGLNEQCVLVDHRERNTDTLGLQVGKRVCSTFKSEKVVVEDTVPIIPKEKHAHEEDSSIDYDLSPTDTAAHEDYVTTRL

SUMO-activating enzyme = SUMO-activating enzyme (Homo sapiens, UniProt Q9UBT2); experiment: blockers of UBC9-mediated SUMO conjugation – biochemical, AlphaScreen, SUMOylation inhibitor project, confirmation (AID 2018); type: functional
SUMO-activating enzyme, sequence (Q9UBE0 whole entry): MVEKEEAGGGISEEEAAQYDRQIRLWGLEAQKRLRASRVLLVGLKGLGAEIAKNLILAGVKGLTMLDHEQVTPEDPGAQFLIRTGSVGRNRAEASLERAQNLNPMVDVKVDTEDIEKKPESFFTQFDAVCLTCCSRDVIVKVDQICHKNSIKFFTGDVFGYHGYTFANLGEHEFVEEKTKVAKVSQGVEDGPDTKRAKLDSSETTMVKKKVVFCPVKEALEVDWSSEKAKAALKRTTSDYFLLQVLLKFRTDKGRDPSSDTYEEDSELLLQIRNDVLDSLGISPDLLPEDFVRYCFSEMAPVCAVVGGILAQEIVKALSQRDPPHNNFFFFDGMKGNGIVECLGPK
SUMO-activating enzyme, sequence (Q9UBT2 whole entry): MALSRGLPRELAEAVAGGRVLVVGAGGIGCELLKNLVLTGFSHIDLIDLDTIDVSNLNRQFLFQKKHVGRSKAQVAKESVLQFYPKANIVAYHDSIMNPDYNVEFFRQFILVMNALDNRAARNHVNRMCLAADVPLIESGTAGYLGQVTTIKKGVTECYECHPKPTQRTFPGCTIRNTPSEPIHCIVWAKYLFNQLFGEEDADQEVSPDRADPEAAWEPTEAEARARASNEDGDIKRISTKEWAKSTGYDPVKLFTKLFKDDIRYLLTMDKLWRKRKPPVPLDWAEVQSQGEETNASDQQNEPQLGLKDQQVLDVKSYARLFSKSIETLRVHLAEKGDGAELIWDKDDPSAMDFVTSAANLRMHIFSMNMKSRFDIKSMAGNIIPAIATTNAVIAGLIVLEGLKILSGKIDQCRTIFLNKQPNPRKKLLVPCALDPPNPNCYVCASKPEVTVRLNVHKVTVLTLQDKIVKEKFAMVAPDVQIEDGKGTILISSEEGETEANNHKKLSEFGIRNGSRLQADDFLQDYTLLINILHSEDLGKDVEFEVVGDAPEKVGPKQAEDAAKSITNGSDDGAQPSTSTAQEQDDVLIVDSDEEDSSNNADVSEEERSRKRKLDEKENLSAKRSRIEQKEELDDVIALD

[2] = biological target: DNA dC->dU-editing enzyme APOBEC-3A (Homo sapiens, UniProt P31941); experiment: Dose Response confirmation of small molecule APOBEC3A DNA Deaminase Inhibitors via a fluorescence-based single-stranded DNA deaminase assay. [Related pubchem assays (depositor defined):AID493011, AID493024]; type: functional
DNA dC->dU-editing enzyme APOBEC-3A, sequence (P31941 whole entry): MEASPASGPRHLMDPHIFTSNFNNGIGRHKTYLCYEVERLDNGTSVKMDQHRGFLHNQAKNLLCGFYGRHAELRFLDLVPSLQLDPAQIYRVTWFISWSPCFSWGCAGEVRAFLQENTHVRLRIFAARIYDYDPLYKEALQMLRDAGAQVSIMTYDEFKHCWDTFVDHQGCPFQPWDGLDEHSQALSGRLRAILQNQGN

[3] = biological target: DNA dC->dU-editing enzyme APOBEC-3G (Homo sapiens, UniProt Q9HC16); type: functional;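 also: Dose-response counterscreen measuring inhibition of APOBEC3G DNA deaminase activity, run while confirming APOBEC3A inhibitors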
DNA dC->dU-editing enzyme APOBEC-3G, sequence (Q9HC16 whole entry, the tested form may be a part): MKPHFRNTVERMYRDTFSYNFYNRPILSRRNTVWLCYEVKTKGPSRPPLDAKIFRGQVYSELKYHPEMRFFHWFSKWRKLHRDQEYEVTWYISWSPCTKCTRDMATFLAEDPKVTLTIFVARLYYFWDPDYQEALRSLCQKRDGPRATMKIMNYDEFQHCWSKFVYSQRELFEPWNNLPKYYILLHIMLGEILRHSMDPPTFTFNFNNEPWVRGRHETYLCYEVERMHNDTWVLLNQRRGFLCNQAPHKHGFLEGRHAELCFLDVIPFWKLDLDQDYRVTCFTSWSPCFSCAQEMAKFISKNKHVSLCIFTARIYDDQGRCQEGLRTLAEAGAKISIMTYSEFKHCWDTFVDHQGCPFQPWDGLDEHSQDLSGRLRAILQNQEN

[4] = biological target: T2, Carboxy-terminal domain RNA polymerase II polypeptide A small phosphatase 1 (Homo sapiens, UniProt Q9GZU7); experiment: CTDSP1 inhibitors, concentration-response, biochemical, absorbance readout, ultra-high-throughput screen actives (AID 540297); type: functional
T2 sequence (Q9GZU7 whole entry): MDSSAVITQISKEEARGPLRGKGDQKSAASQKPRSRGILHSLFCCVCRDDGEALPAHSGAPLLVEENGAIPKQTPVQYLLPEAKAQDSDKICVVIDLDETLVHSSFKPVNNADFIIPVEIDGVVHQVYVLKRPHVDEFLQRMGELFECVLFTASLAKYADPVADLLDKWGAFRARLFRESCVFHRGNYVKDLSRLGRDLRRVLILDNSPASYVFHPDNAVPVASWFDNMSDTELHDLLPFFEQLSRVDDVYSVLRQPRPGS

[5] = THP-1 cell cytotoxicity, dose response, cytotoxicity control for non-replicating M. tuberculosis project (AID 489025); type: functional
[6] = HepG2 cell cytotoxicity, dose response, cytotoxicity control for non-replicating M. tuberculosis project (AID 489018); type: functional; conditions: Mycobacterium tuberculosis
[7] = Vero E6 cell cytotoxicity, dose response, cytotoxicity control for non-replicating M. tuberculosis project, secondary assay (AID 492998); type: functional, VeroE6; conditions: Vero C1008
cells = type: functional
Ion channel NompC = Ion channel NompC (Danio rerio, UniProt Q7T1G6); experiment: Dose response cell-based high-throughput screening assay for agonists of the transient receptor potential channel N1 (TRPN1). [Related pubchem assays (depositor defined):AID1424, AID1448]; type: functional
Mucolipin-3 = biological target: T3, Mucolipin-3 (Homo sapiens, UniProt Q8TDD5); experiment: Fluorescence counterscreen assay for […] agonists: dose response cell-based high-throughput screening assay to identify agonists of the transient receptor potential channel ML3 (TRPML3). [Related pubchem assays: 1424, 1448 ]; type: functional
T3 sequence (Q8TDD5 whole entry): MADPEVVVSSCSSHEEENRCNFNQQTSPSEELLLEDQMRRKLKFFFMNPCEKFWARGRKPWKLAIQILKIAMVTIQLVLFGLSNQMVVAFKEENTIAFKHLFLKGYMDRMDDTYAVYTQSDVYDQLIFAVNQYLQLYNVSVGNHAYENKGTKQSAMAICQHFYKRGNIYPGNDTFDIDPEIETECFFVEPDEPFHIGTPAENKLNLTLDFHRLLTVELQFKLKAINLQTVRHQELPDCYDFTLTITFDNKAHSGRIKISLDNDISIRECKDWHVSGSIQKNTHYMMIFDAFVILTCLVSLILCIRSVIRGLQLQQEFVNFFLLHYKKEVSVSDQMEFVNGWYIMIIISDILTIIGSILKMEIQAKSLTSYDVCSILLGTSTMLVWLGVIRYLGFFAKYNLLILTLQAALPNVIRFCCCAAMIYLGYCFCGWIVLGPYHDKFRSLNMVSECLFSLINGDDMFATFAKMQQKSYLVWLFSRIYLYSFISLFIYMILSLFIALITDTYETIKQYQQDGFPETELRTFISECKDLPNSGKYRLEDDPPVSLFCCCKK

[8] = biological target: T4, Probable nicotinate-nucleotide adenylyltransferase (Staphylococcus aureus (strain N315), UniProt P65502); type: functional, Staphylococcus aureus subsp. aureus N315;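 as to IC50 Mean: confirmatory dose-response retesting of NadD inhibitor hits first found in an ultra-high-throughput screen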
T4 sequence (P65502 whole entry): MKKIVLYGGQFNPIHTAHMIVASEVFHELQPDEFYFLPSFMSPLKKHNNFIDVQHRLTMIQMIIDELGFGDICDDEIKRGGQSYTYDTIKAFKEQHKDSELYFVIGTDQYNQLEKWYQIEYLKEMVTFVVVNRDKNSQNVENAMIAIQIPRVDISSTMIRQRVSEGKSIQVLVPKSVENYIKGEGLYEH

[9] = biological target: T4, Probable nicotinate-nucleotide adenylyltransferase; type: functional, Staphylococcus aureus subsp. aureus N315; conditions: read-out: IC50_Mean
[10] = biological target: 1-acylglycerol-3-phosphate O-acyltransferase ABHD5/Perilipin-5 (Homo sapiens, UniProt Q00G26+Q8WTS1); experiment: Luminescence-based biochemical high throughput dose response assay for inhibitors of the interaction of the lipase co-activator protein, abhydrolase domain containing 5 (ABHD5) with perilipin-5 (MLDP; PLIN5) (2K validation set). [Related pubchem assays (depositor defined):AID493035, AID493241]
1-acylglycerol-3-phosphate O-acyltransferase ABHD5/Perilipin-5, sequence (Q00G26 whole entry, the tested form may be a part): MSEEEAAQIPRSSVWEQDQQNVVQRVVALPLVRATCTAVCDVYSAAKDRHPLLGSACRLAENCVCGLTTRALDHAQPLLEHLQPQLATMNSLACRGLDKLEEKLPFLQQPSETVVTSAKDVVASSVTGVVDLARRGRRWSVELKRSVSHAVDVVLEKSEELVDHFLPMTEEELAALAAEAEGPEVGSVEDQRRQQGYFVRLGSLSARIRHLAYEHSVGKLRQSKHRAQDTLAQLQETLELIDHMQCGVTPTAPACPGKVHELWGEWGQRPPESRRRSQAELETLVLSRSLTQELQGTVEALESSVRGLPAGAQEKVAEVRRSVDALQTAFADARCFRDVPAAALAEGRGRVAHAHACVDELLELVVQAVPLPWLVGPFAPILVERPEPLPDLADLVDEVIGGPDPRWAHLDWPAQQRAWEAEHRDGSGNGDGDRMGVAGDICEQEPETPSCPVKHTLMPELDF
1-acylglycerol-3-phosphate O-acyltransferase ABHD5/Perilipin-5, sequence (Q8WTS1 whole entry, the tested form may be a part): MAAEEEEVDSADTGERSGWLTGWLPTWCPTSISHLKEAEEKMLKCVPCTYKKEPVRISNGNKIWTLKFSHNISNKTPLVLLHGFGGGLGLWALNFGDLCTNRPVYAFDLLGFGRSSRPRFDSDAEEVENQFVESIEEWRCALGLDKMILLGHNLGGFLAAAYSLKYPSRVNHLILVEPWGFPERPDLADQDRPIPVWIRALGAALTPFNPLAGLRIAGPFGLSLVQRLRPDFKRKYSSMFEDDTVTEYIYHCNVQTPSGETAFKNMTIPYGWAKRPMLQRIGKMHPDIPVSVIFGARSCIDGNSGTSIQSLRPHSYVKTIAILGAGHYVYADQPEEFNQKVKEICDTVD

Perilipin-1/ABHD5 = Perilipin-1/ABHD5 (Homo sapiens, UniProt O60240+Q8WTS1); experiment: Luminescence-based biochemical high throughput dose response assay for inhibitors of the interaction of the lipase co-activator protein, abhydrolase domain containing 5 (ABHD5) with perilipin-1 (PLIN1) (2K validation set). [Related pubchem assays (depositor defined):AID493027, AID493057]
Perilipin-1/ABHD5, sequence (Q8WTS1 whole entry, the tested form may be a part): as above
Perilipin-1/ABHD5, sequence (O60240 whole entry, the tested form may be a part): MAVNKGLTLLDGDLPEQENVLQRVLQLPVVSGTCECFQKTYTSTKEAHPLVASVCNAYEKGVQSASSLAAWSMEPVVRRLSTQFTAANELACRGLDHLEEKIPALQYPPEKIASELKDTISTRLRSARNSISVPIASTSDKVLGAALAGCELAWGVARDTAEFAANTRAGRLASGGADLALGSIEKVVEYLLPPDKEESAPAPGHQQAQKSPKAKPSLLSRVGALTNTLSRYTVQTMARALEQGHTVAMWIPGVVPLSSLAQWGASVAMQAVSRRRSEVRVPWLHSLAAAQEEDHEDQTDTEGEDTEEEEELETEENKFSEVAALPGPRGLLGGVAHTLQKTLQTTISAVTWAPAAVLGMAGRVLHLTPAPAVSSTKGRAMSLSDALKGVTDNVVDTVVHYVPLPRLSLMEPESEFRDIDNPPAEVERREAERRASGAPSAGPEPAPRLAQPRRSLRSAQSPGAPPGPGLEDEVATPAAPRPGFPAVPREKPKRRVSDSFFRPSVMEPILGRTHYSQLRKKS

[11] = biological target: T5, Tyrosine-protein phosphatase non-receptor type 7 (Homo sapiens, UniProt P35236); experiment: SAR analysis of chemical inhibitors of HePTP using a Fluorescent assay - Set 2. [Related pubchem assays (depositor defined):AID1059, AID1077, AID1661, AID2085, AID521]; type: functional
T5 sequence (P35236 whole entry): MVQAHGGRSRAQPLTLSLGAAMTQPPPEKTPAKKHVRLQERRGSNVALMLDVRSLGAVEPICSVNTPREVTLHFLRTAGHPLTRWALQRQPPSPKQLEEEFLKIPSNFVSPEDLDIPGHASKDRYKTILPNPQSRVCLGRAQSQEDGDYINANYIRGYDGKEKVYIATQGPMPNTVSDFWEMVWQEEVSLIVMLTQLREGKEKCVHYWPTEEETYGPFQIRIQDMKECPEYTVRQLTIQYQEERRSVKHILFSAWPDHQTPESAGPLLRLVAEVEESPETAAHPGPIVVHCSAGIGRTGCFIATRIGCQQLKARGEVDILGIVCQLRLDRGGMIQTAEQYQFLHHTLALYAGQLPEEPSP

[12] = biological target: Dual specificity protein phosphatase 3 (Homo sapiens, UniProt P51452); experiment: SAR VHR1 Fluorescent Assay for In Vitro dose response studies Set 2. [Related pubchem assays (depositor defined):AID1654, AID1661, AID1878]; type: functional
Dual specificity protein phosphatase 3, sequence (P51452 whole entry): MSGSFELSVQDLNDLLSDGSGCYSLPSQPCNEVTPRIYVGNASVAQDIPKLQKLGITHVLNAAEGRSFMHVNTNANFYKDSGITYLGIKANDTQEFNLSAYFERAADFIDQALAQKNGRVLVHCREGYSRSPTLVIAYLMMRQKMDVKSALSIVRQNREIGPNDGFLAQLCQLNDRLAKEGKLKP

Coagulation factor XII = Coagulation factor XII (Homo sapiens, UniProt P00748); type: functional;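 also: activated factor XIIa alpha cleaving a fluorogenic AMC peptide substrate; inhibitor potency from loss of enzyme activity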
Coagulation factor XII, sequence (P00748 20-372 limits assumed): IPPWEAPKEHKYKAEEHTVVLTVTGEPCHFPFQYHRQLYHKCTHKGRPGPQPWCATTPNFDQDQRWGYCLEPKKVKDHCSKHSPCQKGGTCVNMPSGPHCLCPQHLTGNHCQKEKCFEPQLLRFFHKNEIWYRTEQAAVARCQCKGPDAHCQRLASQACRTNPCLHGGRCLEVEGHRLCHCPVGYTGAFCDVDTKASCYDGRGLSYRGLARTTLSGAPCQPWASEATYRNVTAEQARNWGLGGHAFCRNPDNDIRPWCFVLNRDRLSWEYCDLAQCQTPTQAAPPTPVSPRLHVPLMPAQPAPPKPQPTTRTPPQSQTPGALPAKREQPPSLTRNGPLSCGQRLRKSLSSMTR
Coagulation factor XII, sequence (P00748 373-615 limits assumed): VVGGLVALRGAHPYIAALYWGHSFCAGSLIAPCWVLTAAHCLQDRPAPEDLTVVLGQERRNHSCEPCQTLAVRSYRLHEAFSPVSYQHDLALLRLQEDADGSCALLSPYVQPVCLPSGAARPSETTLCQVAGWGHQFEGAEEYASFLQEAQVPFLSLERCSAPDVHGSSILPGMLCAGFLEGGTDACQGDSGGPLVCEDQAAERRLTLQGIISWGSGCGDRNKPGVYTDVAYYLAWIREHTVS

[13] = biological target: T6, Mannose-6-phosphate isomerase (Homo sapiens, UniProt P34949); experiment: phosphomannose isomerase inhibition – biochemical, fluorescence intensity, confirmation (AID 1535)
T6 sequence (P34949 whole entry): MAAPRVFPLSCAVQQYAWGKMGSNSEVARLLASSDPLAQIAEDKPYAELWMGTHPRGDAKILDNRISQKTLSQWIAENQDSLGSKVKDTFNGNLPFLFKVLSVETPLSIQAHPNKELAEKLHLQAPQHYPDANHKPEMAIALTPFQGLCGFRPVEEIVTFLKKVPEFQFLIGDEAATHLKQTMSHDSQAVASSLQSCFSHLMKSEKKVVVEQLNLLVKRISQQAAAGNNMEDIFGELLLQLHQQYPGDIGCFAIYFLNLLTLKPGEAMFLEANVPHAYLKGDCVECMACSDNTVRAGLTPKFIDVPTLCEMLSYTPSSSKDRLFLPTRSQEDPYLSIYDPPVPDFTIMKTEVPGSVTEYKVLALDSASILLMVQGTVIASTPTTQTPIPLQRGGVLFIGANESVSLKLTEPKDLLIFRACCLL

Phosphomannomutase 2 = biological target: T7, Phosphomannomutase 2 (Homo sapiens, UniProt O15305); experiment: Counter screen SAR assay for PMM2 inhibitors via a fluorescence intensity assay. [Related pubchem assays (depositor defined):AID1545, AID1574]
T7 sequence (O15305 whole entry): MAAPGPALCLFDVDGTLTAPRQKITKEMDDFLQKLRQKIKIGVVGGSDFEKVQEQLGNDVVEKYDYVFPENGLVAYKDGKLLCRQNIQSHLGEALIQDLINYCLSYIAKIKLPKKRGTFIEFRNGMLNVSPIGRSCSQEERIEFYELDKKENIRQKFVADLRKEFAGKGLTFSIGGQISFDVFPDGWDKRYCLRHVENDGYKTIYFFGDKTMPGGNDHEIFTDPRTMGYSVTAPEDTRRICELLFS

[14] = biological target: Phosphoethanolamine/phosphocholine phosphatase (Homo sapiens, UniProt Q8TCT1); experiment: SAR assay for compounds that inhibit PHOSPHO1. [Related pubchem assays (depositor defined):AID1545, AID1565, AID1574]
Phosphoethanolamine/phosphocholine phosphatase, sequence (Q8TCT1 whole entry): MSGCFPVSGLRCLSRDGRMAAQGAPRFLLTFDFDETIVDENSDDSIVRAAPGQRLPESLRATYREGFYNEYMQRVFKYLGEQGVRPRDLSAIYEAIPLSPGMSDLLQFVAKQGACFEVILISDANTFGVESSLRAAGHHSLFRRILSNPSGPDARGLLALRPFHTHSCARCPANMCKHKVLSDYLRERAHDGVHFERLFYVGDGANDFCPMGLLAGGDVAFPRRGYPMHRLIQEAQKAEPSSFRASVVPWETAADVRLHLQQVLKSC

[15] = biological target: T8, Alkaline phosphatase, tissue-nonspecific isozyme (Homo sapiens, UniProt P05186); experiment: potency against alkaline phosphatase TNAP – biochemical, luminescent, dose response, SAR follow-up (AID 1056)
T8 sequence (P05186 whole entry): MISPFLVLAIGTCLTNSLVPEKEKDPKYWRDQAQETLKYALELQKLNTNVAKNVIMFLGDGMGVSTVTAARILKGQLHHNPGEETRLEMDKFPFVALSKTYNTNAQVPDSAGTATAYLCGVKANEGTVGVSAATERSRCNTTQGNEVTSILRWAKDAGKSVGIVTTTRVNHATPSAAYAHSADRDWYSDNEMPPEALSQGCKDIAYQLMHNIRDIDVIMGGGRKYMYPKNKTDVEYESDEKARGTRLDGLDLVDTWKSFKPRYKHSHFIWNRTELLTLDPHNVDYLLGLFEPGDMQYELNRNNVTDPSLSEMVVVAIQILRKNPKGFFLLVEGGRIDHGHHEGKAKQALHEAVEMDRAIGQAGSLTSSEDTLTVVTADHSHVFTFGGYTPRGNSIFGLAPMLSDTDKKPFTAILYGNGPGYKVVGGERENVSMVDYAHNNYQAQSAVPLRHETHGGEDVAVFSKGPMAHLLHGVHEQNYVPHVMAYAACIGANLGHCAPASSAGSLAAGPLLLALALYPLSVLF

Structure (SMILES): COc1ccc(C(c2nnnn2C2CCCC2)N2CCN(c3ccccc3)CC2)cc1 (centres undefined)
- EC50 [1]: 5.31 µM (active)

Structure (SMILES): CCOc1ccc(-n2c(SCC(=O)Nc3ccc(CC)cc3)nc3nnc(C)c-3c2N)cc1
- IC50 (SUMO-activating enzyme): 36.9 µM (active)

Structure (SMILES): C=CC#CC1(O)CC(C)[N+](C)(C)CC1C (centres undefined)
- IC50 [2]: 1.97 µM (active)
- IC50 [3]: 5.58 µM (active)
- IC50 [4]: 7.57 µM (active)

Structure (SMILES): O=C(NC(=S)N1CCc2ccccc21)c1ccccc1
- CC50 [5]: > 40 µM (active)
- CC50 [6]: > 20 µM (active)
- CC50 [7]: > 20 µM (active)
- IC50 (cells): 9.86 µM (active)

Structure (SMILES): COc1ccc(C(=O)NNC(=S)NC(=O)c2cc(-c3ccccc3)nc3ccccc23)cc1
- EC50 (Ion channel NompC): > 29.9 µM (inactive)
- EC50 (Mucolipin-3): > 29.9 µM (not active)
- IC50 [8]: 7.14 µM (active)
- IC50 [9]: 26.4 µM (active)

Structure (SMILES): N#C/C(=C/c1ccccc1)C(=O)NCc1ccccc1
- IC50 [10]: 17.2 µM (inactive)
- IC50 (Perilipin-1/ABHD5): 13.1 µM (inactive)

Structure (SMILES): Cc1ccc(C2=NOC(=O)/C2=C\C=C\c2ccccc2)cc1
- IC50 [10]: 1.12 µM (active)
- IC50 (Perilipin-1/ABHD5): 1.23 µM (active)

Structure (SMILES): CCN1C(NCc2cc(OC)c(OC)c(OC)c2)=N[C@@H](c2ccccc2)C(C(=O)OC)=C1C
- IC50 [2]: 4.15 µM (active)
- IC50 [3]: 3.54 µM (active)

Structure (SMILES): CCCOc1ccc(C(=S)NCc2ccc(F)cc2)cc1
- IC50 [11]: 19.5 µM (active)
- IC50 [12]: 15.1 µM (active)

Structure (SMILES): CNS(=O)(=O)c1cc(C(=O)O)ccc1OC
- IC50 (Coagulation factor XII): > 50 µM (inactive)

Structure (SMILES): COc1ccc(OC)c(C(=S)NCc2ccc(F)cc2)c1
- IC50 [11]: 8.78 µM (active)
- IC50 [12]: 13.5 µM (active)

Structure (SMILES): Cc1ccc(C)c(-n2sc3cc(F)ccc3c2=O)c1
- IC50 [13]: 985 nM (active)
- IC50 (Phosphomannomutase 2): 9.95 µM (active) and 4.57 µM (active)
- IC50 [14]: 4.1 µM (inactive)
- IC50 [15]: > 100 µM (inactive)

Structure (SMILES): CC(C)=CCC/C(C)=C/CC/C(C)=N/O
- IC50 (Coagulation factor XII): > 50 µM (inactive)
